Test results: patent US8017611B2, “Pyridine and pyrazine derivatives -083” (AstraZeneca AB, priority 2007, dated 2011)

Biological target: T1, recombinant Axl tyrosine kinase (Homo sapiens, UniProt P30530)
T1 construct: encompassing amino acids 473 to 894 of Axl; GST (N); made in house; host or cells: SF126 insect cells
T1 sequence (P30530 473-894): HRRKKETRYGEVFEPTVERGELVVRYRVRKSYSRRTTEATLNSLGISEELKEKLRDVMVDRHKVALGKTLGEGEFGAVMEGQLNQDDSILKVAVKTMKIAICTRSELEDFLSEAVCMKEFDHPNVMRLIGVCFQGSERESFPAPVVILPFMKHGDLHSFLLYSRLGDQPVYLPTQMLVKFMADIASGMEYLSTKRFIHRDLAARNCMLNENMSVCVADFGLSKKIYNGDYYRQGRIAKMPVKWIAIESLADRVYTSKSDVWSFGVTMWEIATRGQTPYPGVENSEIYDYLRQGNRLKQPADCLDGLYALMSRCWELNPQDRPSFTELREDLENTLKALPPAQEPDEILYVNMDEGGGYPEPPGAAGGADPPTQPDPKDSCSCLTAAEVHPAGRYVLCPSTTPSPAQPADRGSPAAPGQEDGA
Experiment: In vitro Axl kinase assay (AlphaScreen), Test (a)
Format: biochemical
Conditions: 1 μM; mean calculated from a larger number of replicates than the first value
Protocol: Test compounds were prepared as 10 mM stock solutions in dimethylsulphoxide (DMSO) and diluted in DMSO as required. Aliquots (120 nl) of compound dilutions were filled into the wells of a Greiner 384-well low volume (LV) white polystyrene plate (Greiner Bio-one) using acoustic dispensing (Labcyte Echo 550). A 10 μl mixture of recombinant purified Axl enzyme, biotinylated peptide substrate (Biotin poly-GAT; CisBio, Catalogue No. 61GATBLB), 0.2 μM adenosine triphosphate (ATP) and a buffer solution [comprising 20 mM Tris-HCl pH 7.5 buffer, 0.01% v/v Tween, 5 mM dithiothreitol (DTT) and 10 mM manganese chloride] was incubated with the compounds at room temperature for 20 minutes.
Control wells that produced a minimum signal corresponding to 100% inhibited enzyme were created by adding 10 μM of Staurosporine.
The percentage kinase inhibition value is the percentage of Axl tyrosine kinase activity inhibited by the test compound at a concentration of 1 μM.

Row | SMILES | % Axl tyrosine kinase inhibition at 1 μM concentration (second value, †)
1 | Nc1ncc(-c2cccc(N3CCOCC3)c2)cc1-c1nc2ncccc2o1 [Example 10A.1] | 52.6%
2 | Nc1ncc(-c2ccc(CN3CCOCC3)cc2)cc1-c1nc2ccncc2o1 [Example 11A.1] | 99.4%
3 | Nc1ncc(-c2cccc(N3CCNCC3)c2)nc1-c1nc2ccccc2o1 [Example 20.2] | 99.3%
4 | Nc1ncc(-c2ccc(N3CCNCC3)nc2)nc1-c1nc2ccccc2o1 [Example 20.3] | 98.7%
5 | Nc1ncc(-c2ccc(CN3CCOCC3)cc2)nc1-c1nc2ccccc2o1 [Example 20.6] | 99.2%

Same assay, conditions: 1 μM; mean calculated from a larger number of replicates than the first value; read-out: % Axl tyrosine kinase inhibition at 1 μM concentration (second value, †)

Row | SMILES | inhibition at 1 µM
6 | CC(C)(C)OC(=O)N1CCC(n2cc(-c3cnc(N)c(-c4nc5ccccc5s4)c3)cn2)CC1 [Example 13, tert-butyl 4-[4-[6-Amino-5-(1,3-benzothiazol-2-yl)-3-pyridyl]pyrazol-1-yl]piperidine-1-carboxylate] | 99%
7 | CC(C)(C)OC(=O)N1CCC(n2cc(-c3cnc(N)c(-c4nc5ccccc5o4)n3)cn2)CC1 [Example 15, Tert-butyl 4-[4-[5-amino-6-(1,3-benzoxazol-2-yl)pyrazin-2-yl]pyrazol-1-yl]piperidine-1-carboxylate] | 99.4%

Same assay, conditions: test compound at 1 μM; first value quoted

Row | SMILES | % Axl tyrosine kinase inhibition at 1 μM concentration
8 | Nc1ncc(-c2cccc(C(=O)NCCN3CCOCC3)c2)cc1-c1nc2cccnc2o1 [Example 9A.22] | 81.9%
9 | Nc1ncc(-c2cccc(N3CCOCC3)c2)cc1-c1nc2ncccc2o1 [Example 10A.1] | 55.3%
10 | Nc1ncc(-c2cccc(C(=O)NCCN3CCOCC3)c2)cc1-c1nc2ncccc2o1 [Example 10A.2] | 63.9%
11 | CC(C)(C)OC(=O)N1CCC(C(=O)Nc2cccc(-c3cnc(N)c(-c4nc5ncccc5o4)c3)c2)CC1 [Example 10A.3] | 87.2%
12 | NCc1ccc(-c2cnc(N)c(-c3nc4ncccc4o3)c2)cc1 [Example 10A.4] | 99.0%
13 | Nc1ncc(-c2ccc(C(=O)NCCO)cc2)cc1-c1nc2ncccc2o1 [Example 10A.5] | 91.4%
14 | Nc1ncc(-c2cccc(C(=O)NC3CC3)c2)cc1-c1nc2ncccc2o1 [Example 10A.6] | 37.8%
15 | Nc1ncc(-c2cccc(CN3CCCC3)c2)cc1-c1nc2ncccc2o1 [Example 10A.7] | 95.9%
16 | CN1CCN(C(=O)c2cccc(-c3cnc(N)c(-c4nc5ncccc5o4)c3)c2)CC1 [Example 10A.8] | 57.4%
17 | Nc1ncc(-c2cccc(C(=O)NCCN3CCCC3)c2)cc1-c1nc2ncccc2o1 [Example 10A.9] | 82.5%
18 | Nc1ncc(-c2cccc(S(=O)(=O)NC3CC3)c2)cc1-c1nc2ncccc2o1 [Example 10A.10] | 90.0%
19 | Nc1ncc(-c2cccc(CN3CCCCC3)c2)cc1-c1nc2ncccc2o1 [Example 10A.11] | 88.4%
20 | CN(C)CCCNC(=O)c1ccc(-c2cnc(N)c(-c3nc4ncccc4o3)c2)cc1 [Example 10A.12] | 99.0%
21 | Nc1ncc(-c2ccc(C(=O)N3CCC(O)CC3)cc2)cc1-c1nc2ncccc2o1 [Example 10A.13] | 91.1%
22 | Nc1ncc(-c2ccc(C(=O)N3CCOCC3)cc2)cc1-c1nc2ncccc2o1 [Example 10A.14] | 92.7%
23 | COCc1cccc(-c2cnc(N)c(-c3nc4ncccc4o3)c2)c1 [Example 10A.16] | 99.9%
24 | Nc1ncc(-c2cccc(N3CCCCC3)c2)cc1-c1nc2ncccc2o1 [Example 10A.17] | 40.3%
25 | CN(C)CCNC(=O)c1cccc(-c2cnc(N)c(-c3nc4ncccc4o3)c2)c1 [Example 10A.18] | 84.7%
26 | Nc1ncc(-c2ccc(CO)s2)cc1-c1nc2ncccc2o1 [Example 10A.19] | 90.1%

Row | SMILES | % Axl tyrosine kinase inhibition at 1 μM concentration
27 | Nc1ncc(-c2ccc(CN3CCOCC3)cc2)cc1-c1nc2ccncc2o1 [Example 11A.1] | 99.6%
28 | Nc1ncc(-c2ccc(C(=O)N3CCC(O)CC3)cc2)cc1-c1nc2ccncc2o1 [Example 11A.2] | 97.5%
29 | CC(C)(C)OC(=O)N1CCC(C(=O)Nc2cccc(-c3cnc(N)c(-c4nc5ccncc5o4)c3)c2)CC1 [Example 11A.3] | 87.7%
30 | Nc1ncc(-c2cccc(CN3CCCC3)c2)cc1-c1nc2ccncc2o1 [Example 11A.5] | 97.4%
31 | Nc1ncc(-c2cccc(N3CCCCC3)c2)cc1-c1nc2ccncc2o1 [Example 11A.6] | 90.0%
32 | Nc1ncc(-c2cccc(C(=O)NC3CC3)c2)cc1-c1nc2ccncc2o1 [Example 11A.7] | 80.3%
33 | CNS(=O)(=O)c1cccc(-c2cnc(N)c(-c3nc4ccncc4o3)c2)c1 [Example 11A.8] | 39.6%
34 | CC(C)(C)OC(=O)NCc1cccc(-c2cnc(N)c(-c3nc4ccncc4o3)c2)c1 [Example 11A.9] | 99.3%
35 | Nc1ncc(-c2cccc(N3CCOCC3)c2)cc1-c1nc2ccncc2o1 [Example 11A.12] | 93.7%
36 | CN(C)S(=O)(=O)c1cccc(-c2cnc(N)c(-c3nc4ccccc4o3)n2)c1 [Example 20.1] | 91.8%
37 | Nc1ncc(-c2cccc(N3CCNCC3)c2)nc1-c1nc2ccccc2o1 [Example 20.2] | 99.6%
38 | Nc1ncc(-c2ccc(N3CCNCC3)nc2)nc1-c1nc2ccccc2o1 [Example 20.3] | 99.3%
39 | Nc1ncc(-c2cccc(N3CCCCC3)c2)nc1-c1nc2ccccc2o1 [Example 20.4] | 89.2%
40 | Nc1ncc(-c2cccc(N3CCCC3)c2)nc1-c1nc2ccccc2o1 [Example 20.5] | 85.6%
41 | Nc1ncc(-c2ccc(CN3CCOCC3)cc2)nc1-c1nc2ccccc2o1 [Example 20.6] | 99.1%
42 | CN1CCN(c2ccc(-c3cnc(N)c(-c4nc5ccccc5o4)n3)cn2)CC1 [Example 20.7] | 99.6%
43 | Nc1ncc(-c2cccc(N3CCOCC3)c2)nc1-c1nc2ccccc2o1 [Example 20.8] | 98.9%
44 | CS(=O)(=O)c1cccc(-c2cnc(N)c(-c3nc4ccccc4o3)n2)c1 [Example 20.9] | 92.1%
45 | Nc1ncc(-c2cccc(CN3CCOCC3)c2)nc1-c1nc2ccccc2o1 [Example 20.10] | 99.1%

Same assay, conditions: test compound at 1 μM; first value quoted; read-out: % Axl tyrosine kinase inhibition at 1 μM concentration

Row | SMILES | inhibition at 1 µM
46 | Nc1ncc(-c2cnn(C3CCNCC3)c2)cc1-c1nc2ncccc2o1 [Example 10, 3-Oxazolo[4,5-b]pyridin-2-yl-5-[1-(4-piperidyl)pyrazol-4-yl]pyridin-2-amine] | 98.8%
47 | CN(C)CCNC(=O)c1ccc(-c2cnc(N)c(-c3nc4ncccc4o3)c2)cc1 [Example 10A.15, 4-(6-amino-5-oxazolo[4,5-b]pyridin-2-yl-3-pyridyl)-N-(2-dimethylaminoethyl)benzamide] | 98.4%
48 | Nc1ncc(-c2cnn(C3CCNCC3)c2)cc1-c1nc2ccncc2o1 [Example 11, 3-Oxazolo[5,4-c]pyridin-2-yl-5-[1-(4-piperidyl)pyrazol-4-yl]pyridin-2-amine] | 99%
49 | C[N+]1([O-])CCC(n2cc(-c3cnc(N)c(-c4nc5ccccc5o4)c3)cn2)CC1 (centres unmarked) [Example 12, 3-(1,3-Benzoxazol-2-yl)-5-[1-(1-methyl-1-oxido-piperidin-1-ium-4-yl)pyrazol-4-yl]pyridin-2-amine] | 90.6%
50 | CC(C)(C)OC(=O)N1CCC(n2cc(-c3cnc(N)c(-c4nc5ccccc5s4)c3)cn2)CC1 [Example 13, tert-butyl 4-[4-[6-Amino-5-(1,3-benzothiazol-2-yl)-3-pyridyl]pyrazol-1-yl]piperidine-1-carboxylate] | 95.4%
51 | CC(C)(C)OC(=O)N1CCC(n2cc(-c3cnc(N)c(-c4nc5ccccc5o4)n3)cn2)CC1 [Example 15, Tert-butyl 4-[4-[5-amino-6-(1,3-benzoxazol-2-yl)pyrazin-2-yl]pyrazol-1-yl]piperidine-1-carboxylate] | 93.1%
52 | CN1CCC(n2cc(-c3cnc(N)c(-c4nc5ccccc5s4)c3)cn2)CC1 [Example 16, 3-(1,3-Benzothiazol-2-yl)-5-[1-(1-methyl-4-piperidyl)pyrazol-4-yl]pyridin-2-amine] | 99.8%
53 | Nc1ncc(-c2cnn(C3CCNCC3)c2)nc1-c1nc2ccccc2o1 [Example 17, 3-(1,3-Benzoxazol-2-yl)-5-[1-(4-piperidyl)pyrazol-4-yl]pyrazin-2-amine] | 99.6%
54 | Nc1ncc(-c2cnn(C3CCNCC3)c2)nc1-c1nc2ccc(F)cc2o1 [Example 17A.1, 3-(6-fluoro-1,3-benzoxazol-2-yl)-5-[1-(4-piperidyl)pyrazol-4-yl]pyrazin-2-amine] | 98.5%
55 | CN1CCC(n2cc(-c3cnc(N)c(-c4nc5ccccc5o4)n3)cn2)CC1 [Example 18, 3-(1,3-benzoxazol-2-yl)-5-[1-(1-methyl-4-piperidyl)pyrazol-4-yl]pyrazin-2-amine] | 99.3%
56 | Nc1ncc(-c2cnn(C3CCNCC3)c2)nc1-c1nc2ccccc2s1 [Example 19, 3-(1,3-Benzothiazol-2-yl)-5-[1-(4-piperidyl)pyrazol-4-yl]pyrazin-2-amine] | 99.6%
